One data set has as its system PRF1. Description: Western blot of PRF1 knockdown in human astrocytes. It counts as cell-based. The text has this: (§1) To knockdown PRF1 and GZMB levels in astrocytes, sequences from the RNAi Consortium lentiviral shRNA library were screened and relevant plasmids purchased from Open Biosystems. Clones TRCN0000077206 ([…] (SEQ ID NO: 19)) and TRCN0000032742 ([…] (SEQ ID NO: 20)) were used to target PRF1 and GZMB in mouse astrocytes, respectively. Clones TRCN0000007942 ([…] (SEQ ID NO: 21)) and TRCN0000006448 ([…] (SEQ ID NO: 22)) were used to knockdown PRF1 and GZMB in human astrocytes, respectively. Scrambled shRNA were used as controls for PRF1 ([…] (SEQ ID NO: 23)) and for GZMB ([…] (SEQ ID NO: 24)). […] Prior to addition to astrocytes, viral titer was obtained using Quick-titer lentivirus quantification kit follow manufacture's directions (CellBiolabs Inc, San Diego, Calif., USA).
(§2) Based on the levels of knockdown efficiency evaluated by western blot analysis, clones TRCN0000077206 ([…] (SEQ ID NO: 45)) and TRCN0000007942 ([…] (SEQ ID NO: 46)) were chosen to target PRF1 in mouse and human astrocytes, respectively. […]
(§3) Crude protein cell lysates were obtained using the Tissue Protein Extracting Reagent (Pierce, Rockford, Ill.) following manufacture recommendations. […] Bound primary antibody was detected by horseradish peroxidase conjugated secondary antibody (Jackson ImmunoResearch, West Grove, Pa.) followed by chemiluminescence using ECLTM Western Blotting Detection Reagents (GE Healthcare).

A further data set concerns GZMB. Put plainly: Western blot of GZMB knockdown in human astrocytes. It counts as cell-based.
Description: as §1, §2, §3

On to “ACCTGAATCATGGCCACCTAA (chemistry not given here) [SEQ ID NO: 1]”, for which the PRF1 expression entry in the data set with PRF1 is given as “efficiently ablate”.

Turning to “CATTGTCTCCTATGGACGAAA (expressed or natural sequence) [SEQ ID NO: 2]”, in the data set on GZMB, the GZMB expression entry was “efficiently ablate”.
